From patent US10058534B2, “Benzothiophene derivatives and compositions thereof as selective estrogen receptor degraders” (NOVARTIS AG, priority 2013, dated 2018)

Biological target: ERα (Homo sapiens (Human), UniProt P03372)
Experiment: ERα degradation (MCF7 cells), in-cell Western
Format: cell-based
Settings: MCF7 cells; for IC50: inflection point of the degradation in response to ligand concentration; for % ERα remaining: remaining ERα protein at 10 μM ligand, relative to DMSO control
Procedure: ERα Degradation (MCF7 Cells)
The column titled MCF7 IC50 reports the inflection point of the inhibition of transcription in MCF7 cells as described above. Percentage ERα remaining reports the remaining ERα protein measured at 10 μM concentration of the ligand as described above. The column ERα IC50 reports the inflection point of the degradation in response to the ligand concentration.

Sequence of ERα (P03372 whole entry): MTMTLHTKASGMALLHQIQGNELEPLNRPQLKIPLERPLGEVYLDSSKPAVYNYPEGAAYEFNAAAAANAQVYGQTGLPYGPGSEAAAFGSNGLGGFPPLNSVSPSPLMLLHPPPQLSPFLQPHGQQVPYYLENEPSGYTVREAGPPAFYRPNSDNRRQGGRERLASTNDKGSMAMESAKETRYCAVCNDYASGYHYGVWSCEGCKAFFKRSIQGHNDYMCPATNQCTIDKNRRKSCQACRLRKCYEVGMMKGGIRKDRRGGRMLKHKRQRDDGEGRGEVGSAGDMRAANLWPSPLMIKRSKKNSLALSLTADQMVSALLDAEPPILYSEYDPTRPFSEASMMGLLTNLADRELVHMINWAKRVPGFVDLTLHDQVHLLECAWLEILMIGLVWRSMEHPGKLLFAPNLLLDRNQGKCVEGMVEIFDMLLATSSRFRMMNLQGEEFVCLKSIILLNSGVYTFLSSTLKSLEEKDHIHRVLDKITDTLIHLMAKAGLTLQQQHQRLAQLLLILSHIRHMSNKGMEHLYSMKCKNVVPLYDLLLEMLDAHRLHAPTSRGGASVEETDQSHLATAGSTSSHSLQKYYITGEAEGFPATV

IC50 [nM] | % ERα remaining [%] | SMILES
1 | 23 | CCc1ccccc1-c1sc2cc(O)ccc2c1Oc1ccc(/C=C/C(=O)O)cc1 [Example 18, (E)-3-(4-((2-(2-ethylphenyl)-6-hydroxybenzo[b]thiophen-3-yl)oxy)phenyl)-acrylic acid]
7 | 19 | CC(=O)c1ccccc1-c1sc2cc(O)ccc2c1Oc1ccc(/C=C/C(=O)O)cc1 [Example 19, (E)-3-(4-((2-(2-acetylphenyl)-6-hydroxybenzo[b]thiophen-3-yl)oxy)phenyl)-acrylic acid]
1 | 22 | CC(C)(C)c1ccccc1-c1sc2cc(O)ccc2c1Oc1ccc(/C=C/C(=O)O)cc1 [Example 20, (E)-3-(4-((2-(2-(tert-butyl)phenyl)-6-hydroxybenzo[b]thiophen-3-yl)oxy)phenyl)-acrylic acid]
15 | 22 | O=C(O)/C=C/c1ccc(Oc2c(-c3ccccc3[N+](=O)[O-])sc3cc(O)ccc23)cc1 [Example 21, (E)-3-(4-((6-hydroxy-2-(2-nitrophenyl)-benzo[b]thiophen-3-yl)oxy)phenyl)-acrylic acid]
32 | 18 | CC(C)(C)c1ccc(-c2sc3cc(O)ccc3c2Oc2ccc(/C=C/C(=O)O)cc2)cc1 [Example 22, (E)-3-(4-((2-(4-(tert-butyl)phenyl)-6-hydroxybenzo[b]thiophen-3-yl)oxy)phenyl)-acrylic acid]
30 | 22 | Cc1cc(C)cc(-c2sc3cc(O)ccc3c2Oc2ccc(/C=C/C(=O)O)cc2)c1 [Example 23, (E)-3-(4-((2-(3,5-dimethylphenyl)-6-hydroxybenzo[b]thiophen-3-yl)oxy)phenyl)-acrylic acid]
6 | 22 | C[C@H](O)c1ccccc1-c1sc2cc(O)ccc2c1Oc1ccc(/C=C/C(=O)O)cc1 [Example 25, (S,E)-3-(4-((6-hydroxy-2-(2-(1-hydroxyethyl)phenyl)benzo[b]thiophen-3-yl)oxy)phenyl)acrylic acid]
21 | 18 | COc1ccc(-c2sc3cc(O)ccc3c2Oc2ccc(/C=C/C(=O)O)cc2)cc1 [Example 26, (E)-3-(4-((6-hydroxy-2-(4-methoxyphenyl)benzo[b]thiophen-3-yl)oxy)phenyl)acrylic acid]
85 | 21 | O=C(O)/C=C/c1ccc(Oc2c(-c3ccc(C(F)F)cc3)sc3cc(O)ccc23)cc1 [Example 27, (E)-3-(4-((2-(4-(difluoromethyl)phenyl)-6-hydroxybenzo[b]thiophen-3-yl)oxy)phenyl)acrylic acid]
 | 33 | C/C(=C\c1ccc(Oc2c(-c3ccc(O)cc3)sc3cc(O)ccc23)cc1)C(=O)O [Example 28, (E)-3-(4-((6-hydroxy-2-(4-hydroxyphenyl)-benzo[b]thiophen-3-yl)oxy)phenyl)-2-methylacrylic acid]
 | 26 | O=C(O)/C=C/c1ccc(Oc2c(-c3ccc(O)cc3)sc3cc(O)ccc23)cn1 [Example 29, (E)-3-(5-((6-hydroxy-2-(4-hydroxyphenyl)benzo[b]thiophen-3-yl)oxy)pyridin-2-yl)acrylic acid]

The next lines start with the molecule.

SMILES | IC50 [nM] | % ERα remaining [%]
O=C(O)CCc1ccc(Oc2c(-c3ccc(O)cc3)sc3cc(O)ccc23)cc1 [Example 1, 3-(4-((6-hydroxy-2-(4-hydroxyphenyl)-benzo[b]thiophen-3-yl)oxy)phenyl)propanoic acid] | 31 | 58
O=C(O)/C=C/c1ccc(Oc2c(-c3ccc(C(F)(F)F)cc3)sc3cc(O)ccc23)cc1 [Example 3, (E)-3-(4-((6-hydroxy-2-(4-(trifluoromethyl)phenyl)benzo[b]thiophen-3-yl)oxy)phenyl)acrylic acid] | 34 | 18
CC(C)c1ccccc1-c1sc2cc(O)ccc2c1Oc1ccc(/C=C/C(=O)O)cc1 [Example 4, (E)-3-(4-((6-hydroxy-2-(2-isopropylphenyl)benzo[b]thiophen-3-yl)oxy)phenyl)acrylic acid] | 0.4 | 13
Cc1ccccc1-c1sc2cc(O)ccc2c1Oc1ccc(/C=C/C(=O)O)cc1 [Example 5, (E)-3-(4-((6-hydroxy-2-(o-tolyl)benzo-[b]thiophen-3-yl)oxy)-phenyl)acrylic acid] | 4 | 20
O=C(O)/C=C/c1ccc(Oc2c(-c3ccc(Cl)cc3)sc3cc(O)ccc23)cc1 [Example 6, (E)-3-(4-((2-(4-chlorophenyl)-6-hydroxybenzo[b]thiophen-3-yl)oxy)phenyl)-acrylic acid] |  | 21
O=C(O)/C=C/c1ccc(Oc2c(-c3cccc(F)c3)sc3cc(O)ccc23)cc1 [Example 7, (E)-3-(4-((2-(3-fluorophenyl)-6-hydroxybenzo[b]thiophen-3-yl)oxy)phenyl)-acrylic acid] |  | 22
O=C(O)/C=C/c1ccc(Oc2c(-c3ccccc3C(F)(F)F)sc3cc(O)ccc23)cc1 [Example 8, (E)-3-(4-((6-hydroxy-2-(2-(trifluoromethyl)-phenyl)benzo[b]thiophen-3-yl)oxy)phenyl)-acrylic acid] | 1 | 17
O=C(O)/C=C/c1ccc(Oc2c(-c3ccccc3Cl)sc3cc(O)ccc23)cc1 [Example 9, (E)-3-(4-((2-(2-chlorophenyl)-6-hydroxybenzo[b]thiophen-3-yl)oxy)phenyl)-acrylic acid] | 6 | 18
Cc1cc(C(F)(F)F)ccc1-c1sc2cc(O)ccc2c1Oc1ccc(/C=C/C(=O)O)cc1 [Example 10, (E)-3-(4-((6-hydroxy-2-(2-methyl-4-(trifluoromethyl)phenyl)benzo[b]thiophen-3-yl)oxy)phenyl)acrylic acid] | 5 | 17
O=C(O)/C=C/c1ccc(Oc2c(-c3ccc(C(F)(F)F)cc3C(F)(F)F)sc3cc(O)ccc23)cc1 [Example 11, (E)-3-(4-((2-(2,4-bis(trifluoromethyl)phenyl)-6-hydroxy-benzo[b]thiophen-3-yl)oxy)phenyl)-acrylic acid] | 1 | 15
Cc1cccc(-c2sc3cc(O)ccc3c2Oc2ccc(/C=C/C(=O)O)cc2)c1C [Example 13, (E)-3-(4-((2-(2,3-dimethylphenyl)-6-hydroxybenzo[b]thiophen-3-yl)oxy)phenyl)-acrylic acid] | 2 | 14
Cc1ccc(C)c(-c2sc3cc(O)ccc3c2Oc2ccc(/C=C/C(=O)O)cc2)c1 [Example 14, (E)-3-(4-((2-(2,5-dimethylphenyl)-6-hydroxybenzo[b]thiophen-3-yl)oxy)phenyl)-acrylic acid] | 6 | 15
Cc1noc(C)c1-c1sc2cc(O)ccc2c1Oc1ccc(/C=C/C(=O)O)cc1 [Example 15, (E)-3-(4-((2-(3,5-dimethylisoxazol-4-yl)-6-hydroxybenzo-[b]thiophen-3-yl)oxy)-phenyl)acrylic acid] | 12 | 20
Cc1c(O)cccc1-c1sc2cc(O)ccc2c1Oc1ccc(/C=C/C(=O)O)cc1 [Example 16, (E)-3-(4-((6-hydroxy-2-(3-hydroxy-2-methyl-phenyl)benzo[b]thiophen-3-yl)oxy)phenyl)-acrylic acid] | 6 | 26
